Reference: patent US11787785B2 (NOVARTIS AG, priority 2021, dated 2023)

Target: T1, WIZ protein (HiBit-WIZ fusion protein) (Homo sapiens, UniProt O95785+Q96SW2)
T1 construct: expressed in transfected cells
Test: Quantification of WIZ protein levels in HiBit tag fusion protein assay (WIZ HiBit assay in 293T cells)
Format: cell-based
Parameters: remaining activity / Dmax: dose or concentration left out as unconfirmed
Conditions: for Dmax at 25 µM: 100 − Amax; for Dmax at 25 µM / remaining activity at 25 µM: 293T cells; for remaining activity at 25 µM: DMSO-normalized, curve-fitted percentage of WIZ-HiBit remaining at 25 uM; for DC50: WIZ HiBit assay in 293T cells, 10-point, 5-fold dose response, highest concentration 25 μM, about 18 hours, read-out: WIZ AC50
How it was run: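 Luminescence after LgBit complementation quantified remaining HiBit-WIZ in lysates of single-copy stable 293T lines. Cells dosed ~18 h at 37 °C with 10-point, 5-fold dilutions (highest 25 μM); DMSO set to 100%, fitted curve gave % remaining at 25 μM (Amax).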

[1] = HEK-293T, read-out: % degradation of WIZ (100 − Amax)

T1 sequence (O95785 whole entry, the tested form may be a part): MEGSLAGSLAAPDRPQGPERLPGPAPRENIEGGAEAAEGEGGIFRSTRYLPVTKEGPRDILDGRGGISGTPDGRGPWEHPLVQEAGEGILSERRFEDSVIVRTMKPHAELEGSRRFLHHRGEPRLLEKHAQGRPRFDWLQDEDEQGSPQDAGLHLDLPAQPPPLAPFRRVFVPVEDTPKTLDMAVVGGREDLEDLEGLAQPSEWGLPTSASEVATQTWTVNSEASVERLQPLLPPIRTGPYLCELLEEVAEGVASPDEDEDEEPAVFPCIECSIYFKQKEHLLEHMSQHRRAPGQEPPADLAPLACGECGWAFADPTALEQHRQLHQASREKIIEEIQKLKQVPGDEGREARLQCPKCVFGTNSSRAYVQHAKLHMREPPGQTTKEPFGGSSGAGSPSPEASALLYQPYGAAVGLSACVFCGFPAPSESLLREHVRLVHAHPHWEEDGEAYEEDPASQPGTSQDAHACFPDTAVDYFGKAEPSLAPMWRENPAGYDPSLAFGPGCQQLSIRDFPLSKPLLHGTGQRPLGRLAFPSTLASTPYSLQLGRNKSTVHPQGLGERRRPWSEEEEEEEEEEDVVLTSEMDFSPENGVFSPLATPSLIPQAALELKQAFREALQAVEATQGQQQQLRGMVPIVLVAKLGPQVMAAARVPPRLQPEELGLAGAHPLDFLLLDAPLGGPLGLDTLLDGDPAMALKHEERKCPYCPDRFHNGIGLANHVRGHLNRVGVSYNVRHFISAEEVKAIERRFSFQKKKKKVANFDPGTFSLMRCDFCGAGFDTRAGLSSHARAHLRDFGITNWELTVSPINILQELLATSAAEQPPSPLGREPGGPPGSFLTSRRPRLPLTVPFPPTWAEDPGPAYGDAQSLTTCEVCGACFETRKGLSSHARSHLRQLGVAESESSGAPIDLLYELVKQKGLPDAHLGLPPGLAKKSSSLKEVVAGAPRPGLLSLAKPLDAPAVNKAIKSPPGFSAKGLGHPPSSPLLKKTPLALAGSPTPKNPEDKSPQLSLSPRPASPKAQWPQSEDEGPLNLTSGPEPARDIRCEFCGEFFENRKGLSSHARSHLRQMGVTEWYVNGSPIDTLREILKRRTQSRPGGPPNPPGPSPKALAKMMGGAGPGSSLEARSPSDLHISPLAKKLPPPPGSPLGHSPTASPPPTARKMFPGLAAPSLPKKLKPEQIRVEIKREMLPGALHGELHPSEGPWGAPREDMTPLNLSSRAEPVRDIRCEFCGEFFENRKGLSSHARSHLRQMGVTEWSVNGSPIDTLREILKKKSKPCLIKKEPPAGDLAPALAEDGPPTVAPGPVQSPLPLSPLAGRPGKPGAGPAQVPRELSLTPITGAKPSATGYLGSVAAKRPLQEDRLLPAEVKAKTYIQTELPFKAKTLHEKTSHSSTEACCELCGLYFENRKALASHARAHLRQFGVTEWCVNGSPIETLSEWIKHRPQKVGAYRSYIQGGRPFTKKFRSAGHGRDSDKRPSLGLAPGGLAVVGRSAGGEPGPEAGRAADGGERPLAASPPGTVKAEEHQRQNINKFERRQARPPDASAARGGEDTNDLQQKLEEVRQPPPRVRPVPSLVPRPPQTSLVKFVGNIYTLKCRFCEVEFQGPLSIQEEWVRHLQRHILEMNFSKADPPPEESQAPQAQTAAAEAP
T1 sequence (Q96SW2 whole entry, the tested form may be a part): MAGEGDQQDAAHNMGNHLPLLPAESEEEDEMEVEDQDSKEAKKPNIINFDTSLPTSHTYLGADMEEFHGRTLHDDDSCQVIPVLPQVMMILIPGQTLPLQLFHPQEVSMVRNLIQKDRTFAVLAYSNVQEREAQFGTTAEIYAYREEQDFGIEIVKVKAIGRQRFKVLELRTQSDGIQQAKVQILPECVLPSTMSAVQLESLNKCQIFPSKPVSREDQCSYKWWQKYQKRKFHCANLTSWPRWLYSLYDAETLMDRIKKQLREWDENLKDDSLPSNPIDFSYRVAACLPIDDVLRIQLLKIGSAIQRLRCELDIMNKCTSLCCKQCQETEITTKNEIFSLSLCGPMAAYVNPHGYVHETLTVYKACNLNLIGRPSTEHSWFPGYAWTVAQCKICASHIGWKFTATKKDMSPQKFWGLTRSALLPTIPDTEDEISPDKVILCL
T1 sequence (Q16531 whole entry partner, the tested form may be a part): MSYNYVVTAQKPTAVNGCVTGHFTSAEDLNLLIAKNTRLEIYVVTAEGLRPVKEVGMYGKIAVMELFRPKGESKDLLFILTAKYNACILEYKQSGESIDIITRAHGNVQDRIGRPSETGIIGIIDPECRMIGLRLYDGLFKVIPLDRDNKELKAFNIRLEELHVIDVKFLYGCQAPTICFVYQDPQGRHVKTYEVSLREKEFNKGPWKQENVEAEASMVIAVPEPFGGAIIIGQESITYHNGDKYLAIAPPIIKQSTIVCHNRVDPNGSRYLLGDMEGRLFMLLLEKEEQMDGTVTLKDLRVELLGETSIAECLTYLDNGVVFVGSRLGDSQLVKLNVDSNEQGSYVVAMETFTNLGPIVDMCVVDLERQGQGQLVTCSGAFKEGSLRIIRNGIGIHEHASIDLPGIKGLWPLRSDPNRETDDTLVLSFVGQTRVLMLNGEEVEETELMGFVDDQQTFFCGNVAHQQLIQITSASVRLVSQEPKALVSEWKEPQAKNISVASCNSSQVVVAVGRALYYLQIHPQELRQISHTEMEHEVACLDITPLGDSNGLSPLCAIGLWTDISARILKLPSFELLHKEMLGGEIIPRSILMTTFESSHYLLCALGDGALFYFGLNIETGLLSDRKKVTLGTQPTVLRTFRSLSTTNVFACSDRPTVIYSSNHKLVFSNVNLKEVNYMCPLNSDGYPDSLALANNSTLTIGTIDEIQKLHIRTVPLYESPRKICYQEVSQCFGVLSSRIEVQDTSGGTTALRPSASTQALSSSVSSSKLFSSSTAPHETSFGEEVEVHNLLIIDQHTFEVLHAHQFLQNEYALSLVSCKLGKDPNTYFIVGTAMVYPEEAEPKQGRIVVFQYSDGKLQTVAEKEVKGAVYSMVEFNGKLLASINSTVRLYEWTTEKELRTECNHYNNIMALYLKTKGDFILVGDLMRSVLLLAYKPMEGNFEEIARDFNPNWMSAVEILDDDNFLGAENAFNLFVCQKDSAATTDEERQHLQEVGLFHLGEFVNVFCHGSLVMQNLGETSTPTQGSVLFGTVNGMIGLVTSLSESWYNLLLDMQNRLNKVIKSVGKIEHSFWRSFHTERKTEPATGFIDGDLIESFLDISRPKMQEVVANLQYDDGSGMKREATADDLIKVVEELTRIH

Row | Compound | Dmax at 25 µM [1] [%] | remaining activity at 25 µM (HEK-293T, read-out: WIZ Amax) [%] | DC50 [nM] | Dmax [1] [%] | remaining activity (HEK-293T, read-out: WIZ Amax) [%]
1 | Cc1ccc(CN2CCC(Cc3ccn4ncc(N5CCC(=O)NC5=O)c4c3)CC2)cn1 [Example 46, 1-(5-((1-((6-methylpyridin-3-yl)methyl)piperidin-4-yl)methyl)pyrazolo[1,5-a]pyridin-3-yl)dihydropyrimidine-2,4(1H,3H)-dione] | 69 | 31 | 58 | – | –
2 | CC(C)(O)CN1CCC(Cc2ccn3ncc(N4CCC(=O)NC4=O)c3c2)CC1 [Example 106, 1-(5-((1-(2-hydroxy-2-methylpropyl)piperidin-4-yl)methyl)pyrazolo[1,5-a]pyridin-3-yl)dihydropyrimidine-2,4(1H,3H)-dione] | 68 | 32 | 283 | – | –
3 | O=C1CCN(c2cnn3ccc(CC4CCN(CC5CCC5)C4)cc23)C(=O)N1 (stereo not drawn) [Example 130] | 36 | 64 | 1320 | – | –
4 | CC(C)S(=O)(=O)N1C[C@@H]2C[C@H]1CN2Cc1ccn2ncc(N3CCC(=O)NC3=O)c2c1 [Example 238, 1-(5-(((1S,4S)-5-(isopropylsulfonyl)-2,5-diazabicyclo[2.2.1]heptan-2-yl)methyl)pyrazolo[1,5-a]pyridin-3-yl)dihydropyrimidine-2,4(1H,3H)-dione] | 19 | 81 | 754 | – | –
5 | C[C@H]1CC(F)(Cc2ccn3ncc(N4CCC(=O)NC4=O)c3c2)CCN1C1COC1 (single isomer, unassigned) [Example 310] | 73 | 27 | 150 | – | –
6 | O=C1CCN(c2cnn3ccc(CC4CCN(C5CCC5)CC4)cc23)C(=O)N1 [Example 282, 1-(5-((1-cyclobutylpiperidin-4-yl)methyl)pyrazolo[1,5-a]pyridin-3-yl)dihydropyrimidine-2,4(1H,3H)-dione] | 81 | 19 | 1 | – | –
7 | O=C1CCN(c2cnn3ccc(CC4CCN(Cc5cccc(C(F)(F)F)c5)CC4)cc23)C(=O)N1 [Example 25, 1-(5-((1-(3-(trifluoromethyl)benzyl)piperidin-4-yl)methyl)pyrazolo[1,5-a]pyridin-3-yl)dihydropyrimidine-2,4(1H,3H)-dione] | 76 | 24 | 40 | – | –
8 | O=C1CCN(c2cnn3ccc(CC4CCN(CC(=O)N5CCCCC5)CC4)cc23)C(=O)N1 [Example 52, 1-(5-((1-(2-oxo-2-(piperidin-1-yl)ethyl)piperidin-4-yl)methyl)pyrazolo[1,5-a]pyridin-3-yl)dihydropyrimidine-2,4(1H,3H)-dione] | 59 | 41 | 987 | – | –
9 | CCS(=O)(=O)N1CC[C@@H](Cc2ccn3ncc(-n4ccc(=O)[nH]c4=O)c3c2)C[C@@H]1C [Example 356, 1-(5-(((2S,4R)-1-(ethylsulfonyl)-2-methylpiperidin-4-yl)methyl)pyrazolo[1,5-a]pyridin-3-yl)pyrimidine-2,4(1H,3H)-dione] | 83 | 17 | 162 | – | –
10 | CO[C@H]1CC[C@H](CN2CCC(Cc3ccn4ncc(N5CCC(=O)NC5=O)c4c3)CC2)CC1 [Example 64, 1-(5-((1-(((1r,4r)-4-methoxycyclohexyl)methyl)piperidin-4-yl)methyl)pyrazolo[1,5-a]pyridin-3-yl)dihydropyrimidine-2,4(1H,3H)-dione] | 94 | 6 | 43 | – | –
11 | CC(C)(C1CCC1)N1CCC(Cc2ccn3ncc(N4CCC(=O)NC4=O)c3c2)CC1 [Example 138, 1-(5-((1-(2-cyclobutylpropan-2-yl)piperidin-4-yl)methyl)pyrazolo[1,5-a]pyridin-3-yl)dihydropyrimidine-2,4(1H,3H)-dione] | 80 | 20 | 100 | – | –
12 | CC(C)CN1CC(Cc2ccn3ncc(N4CCC(=O)NC4=O)c3c2)C1 [Example 134, 1-(5-((1-isobutylazetidin-3-yl)methyl)pyrazolo[1,5-a]pyridin-3-yl)dihydropyrimidine-2,4(1H,3H)-dione] | 27 | 73 | 4300 | – | –
13 | C[C@H]1CN(Cc2ccn3ncc(N4CCC(=O)NC4=O)c3c2)CCN1C[C@H]1C[C@@H](F)[C@@H](F)C1 [Example 318, 1-(5-(((S)-4-(((1r,3R,4S)-3,4-difluorocyclopentyl)methyl)-3-methylpiperazin-1-yl)methyl)pyrazolo[1,5-a]pyridin-3-yl)dihydropyrimidine-2,4(1H,3H)-dione] | 87 | 13 | 10 | – | –
14 | Cc1c(CC2CCN(CC3CCCCC3)CC2)ccn2ncc(N3CCC(=O)NC3=O)c12 [Example 127, 1-(5-((1-(cyclohexylmethyl)piperidin-4-yl)methyl)-4-methylpyrazolo[1,5-a]pyridin-3-yl)dihydropyrimidine-2,4(1H,3H)-dione] | 69 | 31 | 13 | – | –
15 | O=C1CCN(c2cnn3ccc(CC4CCN(CC56CC7CC(CC(C7)C5)C6)CC4)cc23)C(=O)N1 [Example 117] | 90 | 10 | 1 | – | –
16 | C[C@H]1C[C@H](Cc2ccn3ncc(N4CCC(=O)NC4=O)c3c2)CCN1S(=O)(=O)C1CC1 [Example 286] | 79 | 20 | 31 | – | –
17 | C[C@@H]1C[C@H](Cc2ccn3ncc(N4CCC(=O)NC4=O)c3c2)CCN1CC1CCCCC1 [Example 76] | 81 | 19 | 36 | – | –
18 | O=C1CCN(c2cnn3ccc(CC4CCN(Cc5cscn5)CC4)cc23)C(=O)N1 [Example 115] | 54 | 46 | 267 | – | –
19 | C[C@H]1CN(Cc2ccn3ncc(N4CCC(=O)NC4=O)c3c2)CCN1CC1CCOCC1 [Example 202] | 85 | 15 | 5 | – | –
20 | O=C1CCN(c2cnn3ccc(CC4CCN(CCO)CC4)cc23)C(=O)N1 [Example 35, 1-(5-((1-(2-hydroxyethyl)piperidin-4-yl)methyl)pyrazolo[1,5-a]pyridin-3-yl)dihydropyrimidine-2,4(1H,3H)-dione] | 73 | 27 | 3140 | – | –
21 | O=C1CCN(c2cnn3ccc(CC4CCN(Cc5ccc(C(F)(F)F)cc5)CC4)cc23)C(=O)N1 [Example 57, 1-(5-((1-(4-(trifluoromethyl)benzyl)piperidin-4-yl)methyl)pyrazolo[1,5-a]pyridin-3-yl)dihydropyrimidine-2,4(1H,3H)-dione] | 63 | 37 | 107 | – | –
22 | C[C@H]1CN(Cc2ccn3ncc(N4CCC(=O)NC4=O)c3c2)CCN1C[C@H]1CCC(F)(F)C1 [Example 320, 1-(5-(((S)-4-(((S)-3,3-difluorocyclopentyl)methyl)-3-methylpiperazin-1-yl)methyl)pyrazolo[1,5-a]pyridin-3-yl)dihydropyrimidine-2,4(1H,3H)-dione] | 78 | 21 | 18 | – | –
23 | CCCN1CCN(Cc2ccn3ncc(N4CCC(=O)NC4=O)c3c2)CC1 [Example 163] | 76 | 24 | 561 | – | –
24 | COCC(F)(F)CN1CC[C@@H](Cc2ccn3ncc(N4CCC(=O)NC4=O)c3c2)C[C@@H]1C [Example 278, 1-(5-(((2S,4R)-1-(2,2-difluoro-3-methoxypropyl)-2-methylpiperidin-4-yl)methyl)pyrazolo[1,5-a]pyridin-3-yl)dihydropyrimidine-2,4(1H,3H)-dione] | – | – | 66 | 72 | 28
25 | C[C@H]1C[C@H](Cc2ccn3ncc(N4CCC(=O)NC4=O)c3c2)CCN1CC1CCCCC1 [Example 143] | 88 | 12 | 4 | – | –
26 | O=C1CCN(c2cnn3ccc(CN4CCN5CCOC[C@@H]5C4)cc23)C(=O)N1 [Example 264, (S)-1-(5-((hexahydropyrazino[2,1-c][1,4]oxazin-8(1H)-yl)methyl)pyrazolo[1,5-a]pyridin-3-yl)dihydropyrimidine-2,4(1H,3H)-dione] | 64 | 36 | 260 | – | –
27 | Cn1cnc(CN2CCC(Cc3ccn4ncc(N5CCC(=O)NC5=O)c4c3)CC2)c1 [Example 116] | 39 | 61 | 1700 | – | –
28 | O=C1CCN(c2cnn3ccc(CN4C[C@H]5CC[C@@H](C4)N5CC4CCCCC4)cc23)C(=O)N1 [Example 252, 1-(5-(((1R,5S)-8-(cyclohexylmethyl)-3,8-diazabicyclo[3.2.1]octan-3-yl)methyl)pyrazolo[1,5-a]pyridin-3-yl)dihydropyrimidine-2,4(1H,3H)-dione] | 42 | 58 | 277 | – | –
29 | O=C1CCN(c2cnn3ccc(CC4C[C@H]5CC[C@@H](C4)N5Cc4cccnc4)cc23)C(=O)N1 (stereo partly drawn) [Example 68, 1-(5-(((1R,5S)-8-(pyridin-3-ylmethyl)-8-azabicyclo[3.2.1]octan-3-yl)methyl)pyrazolo[1,5-a]pyridin-3-yl)dihydropyrimidine-2,4(1H,3H)-dione] | 57 | 43 | 384 | – | –
30 | CC(C)N1CCC(Cc2ccn3ncc(N4CCC(=O)NC4=O)c3c2)CC1 [Example 37, 1-(5-((1-isopropylpiperidin-4-yl)methyl)pyrazolo[1,5-a]pyridin-3-yl)dihydropyrimidine-2,4(1H,3H)-dione] | 72 | 28 | 446 | – | –
